The values below come from US5760065A, “Anti-HIV agent” (priority 1994, dated 1998).

Usually inhibition stands for the percentage by which the read-out fell short of the control.

For data set [1] the following is noted: literature, qualitative; cited from earlier work.
For data set [2] the following is noted: literature, qualitative; cited from earlier work. The source holds these as a separate data set.
For data set [3] the following is noted: literature, qualitative; cited from earlier work. The source holds these as a separate data set.
Data set [4] deals with platelet. The conditions noted are these: 67th Annual Meeting of the Japanese Pharmacological Society (1994); cited from earlier work.
Data set [5] deals with actin. The settings on record: 67th Annual Meeting of the Japanese Pharmacological Society (1994); cited from earlier work.
The test system of data set [6] is smooth muscle. The conditions noted are these: 113th Meeting of the Japanese Society of Veterinary Science (1992); cited from earlier work.
Data set [7] relates to HIV (type IIIB). The data set is described as follows: HIV proliferation inhibitory activity: HIV budding from infected U937 cells, evaluated by reverse transcriptase activity. The class given is cell-based. The settings on record: 15 min with compound, then 6 h culture. On the procedure: (§1) U937 cells (derived from human lymphocytes) infected with HIV (type IIIB) were cultured in RPMI-1640 medium (Biocell Laboratories) containing Test Compound (I) and 10% fetal bovine serum (FBS) at 37° C. for 15 minutes in a CO2 -incubator. The cultured U937 cells were washed with RPMI-1640 medium and then cultured in RPMI-1640 medium containing 10% FBS at 37° C. for 6 hours in the CO2 -incubator. The degree of inhibition of HIV budding by the test compound was evaluated by the reverse transcriptase activity in a unit culture. Cytotoxicity test was carried out by the MTT method [J. Immunol. Method., 65, 55 (1983)].

The nature of data set [8]: in vitro. The class given is cell-based. The conditions noted are these: human, u937 cells, MTT method. The method, then:
as §1

Consider `COC(CC1OC(=O)CC(OC(N)=O)CCCC(O)C(CO)C(OC)c2coc(n2)-c2coc(n2)-c2coc(n2)/C=C/CC(OC)C1C)C(C)CCC(=O)C(C)C(OC)C(C)/C=C/N(C)C=O` (centres unmarked) [Kabiramide A], for which the cytotoxicity entry in data set [1] is listed as “have cytotoxicity”.
As to `COCC(OC)C(=O)OC(CCC(C)C(CC1OC(=O)CC(O)CCCC(=O)CC(C)c2coc(n2)-c2coc(n2)-c2coc(n2)/C=C/CC(OC)C1C)OC)C(C)C(OC(C)=O)C(C)/C=C/N(C)C=O` (centres unmarked) [Ulpualide B], in data set [1], the cytotoxicity entry is on record as “have cytotoxicity”. The antibacterial activity entry in data set [2] is “antibacterial activity”.
Regarding `COC(CC1OC(=O)CC(O)CC(O)CC(=O)C(C)C(OC)c2coc(n2)-c2coc(n2)-c2coc(n2)/C=C/CCC1C)C(C)CCC(=O)C(C)C(C/C=C/N(C)C=O)OC` (centres unmarked) [Jaspisamide A], in data set [1], the cytotoxicity entry is reported as “have cytotoxicity”.
For `COC(CC1OC(=O)CC(O)C/C=C/C(=O)C(C)C(OC)c2coc(n2)-c2coc(n2)-c2coc(n2)/C=C/CC(O)C1C)C(C)CCC(=O)C(C)C(C/C=C/N(C)C=O)OC` (centres unmarked) [Jaspisamide B], in data set [1], the cytotoxicity result is reported as “have cytotoxicity”.
`COC(CC1OC(=O)CC(O)CC=CC(=O)C(C)C(OC)c2coc(n2)-c2coc(n2)C(=O)NC(=O)/C=C/CCC1C)C(C)CCC(=O)C(C)C(C/C=C/N(C)C=O)OC` (centres unmarked) [Isohalichondramide (imide form)]: in data set [3], the antifungal activity entry was “antifungal activity”. In addition, the cytotoxicity result in data set [1] is on record as “have cytotoxicity”.
Consider `COC(CC1OC(=O)CC(O)C/C=C/C(=O)C(C)C(OC)c2coc(n2)-c2coc(n2)-c2coc(n2)/C=C/CCC1C)C(C)CCC(=O)C(C)C(C/C=C/N(C)C=O)OC` (centres unmarked) [Halichondramide], for which the antifungal activity result in data set [3] is on record as “antifungal activity”. Also, in data set [1], the cytotoxicity result is “have cytotoxicity”.
Turning to `COC(CC1OC(=O)CC(O)CC=CC(=O)C(C)C(OC)c2coc(n2)-c2coc(n2)-c2coc(n2)/C=C/CCC1C)C(C)CCC(=O)C(C)C(C/C=C/N(C)C=O)OC` (centres unmarked) [Isohalichondramide], in data set [3], the antifungal activity entry was “antifungal activity”. Further, the cytotoxicity entry in data set [1] is reported as “have cytotoxicity”.
For the compound `COC(CC1OC(=O)CC(O)CCCC(O)C(C)C(OC)c2coc(n2)-c2coc(n2)-c2coc(n2)/C=C/CCC1C)C(C)CCC(=O)C(C)C(OC)C(C)/C=C/N(C)C=O` (centres unmarked) [Tetrahydrohalichondramide], the antifungal activity entry in data set [3] is given as “antifungal activity”. Besides, the cytotoxicity result in data set [1] is “has cytotoxicity”.
For `COC(CC1OC(=O)CC(OC(N)=O)CCCC(O)C(C)C(OC)c2coc(n2)-c2coc(n2)-c2coc(n2)/C=C/CC(O)C1C)C(C)CCC(=O)C(C)C(OC)C(C)/C=C/N(C)C=O` (centres unmarked) [Kabiramide B], the cytotoxicity result in data set [1] was “have cytotoxicity”.
On to `COC(CC1OC(=O)CC(O)C/C=C/C(=O)C(C)C(OC)c2coc(n2)-c2coc(n2)-c2coc(n2)/C=C/CCC1C)C(C)CCC(=O)C(C)C(OC)C(C)/C=C/N(C)C=O` (centres unmarked) [Jaspisamide C], for which, in data set [1], the cytotoxicity entry is “have cytotoxicity”.
For the compound `COC(C)C(=O)OC(CCC(C)C(CC1OC(=O)CC(O)C/C=C/C(=O)C(C)C(OC)c2coc(n2)-c2coc(n2)-c2coc(n2)/C=C/CC(OC)C1C)OC)C(C)C(OC(C)=O)C(C)/C=C/N(C)C=O` (centres unmarked) [Mycalolide C], the antifungal activity result in data set [3] is “antifungal activity”. Besides, the cytotoxicity result in data set [1] is “have cytotoxicity”.
With `COC(CC1OC(=O)CC(O)CCCC(O)C(C)C(OC)c2coc(n2)-c2coc(n2)-c2coc(n2)/C=C/CC(OC)C1C)C(C)CCC(=O)C(C)C(OC)C(C)/C=C/N(C)C=O` (centres unmarked) [Kabiramide D], the cytotoxicity entry in data set [1] is reported as “have cytotoxicity”.
Regarding `COC(CC1OC(=O)CC(OC(N)=O)CCCC(O)C(C)C(OC)c2coc(n2)-c2coc(n2)-c2coc(n2)/C=C/CC(OC)C1C)C(C)CCC(=O)C(C)C(OC)C(C)/C=C/N(C)C=O` (centres unmarked) [Kabiramide C], the antifungal activity result in data set [3] is “has antifungal activity”.
Regarding `COCC(OC)C(=O)OC(CCC(C)C(CC1OC(=O)CC(O)C/C=C/C(=O)C(C)C(OC)c2coc(n2)-c2coc(n2)-c2coc(n2)/C=C/CC(OC)C1C)OC)C(C)C(OC(C)=O)C(C)/C=C/N(C)C=O` (centres unmarked) [Mycalolide B], the anti-platelet activity entry in data set [4] is listed as “anti-platelet activity”. The “actin polymerization inhibitory activity” value in data set [5] is on record as “actin polymerization inhibitory activity”. Moreover, in data set [6], the “inhibitory activity against contraction of smooth muscle” value is recorded as “inhibitory activity against contraction of smooth muscle”. For the same compound, in data set [3], the antifungal activity entry was “antifungal activity”. For the same compound, in data set [7] (Human immunodeficiency virus 1, U-937, 10^-7 M), the inhibition at 0.1 µM amounted to 71.4%. Further, the inhibition at 0.01 µM in data set [7] (Human immunodeficiency virus 1, U-937, 10^-8 M) is 57.1%. Further, the inhibition at 0.001 µM in data set [7] (Human immunodeficiency virus 1, U-937, 10^-9 M) worked out at 28.6%. In addition, in data set [7] (Human immunodeficiency virus 1, U-937, 10^-10 M), the inhibition at 0.0001 µM came to 14.3%. Further, the cytotoxicity entry in data set [1] is reported as “have cytotoxicity”. The cytotoxicity at 0.1 µM in data set [8] (10^-7 M) stood at 4.3%. In addition, the cytotoxicity at 0.01 µM in data set [8] (10^-8 M) turned out to be 2.2%. For the same compound, the cytotoxicity at 0.001 µM in data set [8] (10^-9 M) was 1.5%. Also, in data set [8] (10^-10 M), the cytotoxicity at 0.0001 µM stood at 0.7%.
On to `COC(CC1OC(=O)CC(O)CC=CC(=O)C(C)C(OC)c2coc(n2)-c2coc(n2)-c2coc(n2)/C=C/CCC1C)C(C)CCC(=O)C(C)C(CCC(=O)O)OC` (centres unmarked) [Isohalichondramide (carboxylic acid form)], for which, in data set [3], the antifungal activity result is listed as “antifungal activity”. In addition, in data set [1], the cytotoxicity result was “have cytotoxicity”.
For the compound `COC(CC1OC(=O)CC(O)CCCC(=O)CC(C)c2coc(n2)-c2coc(n2)-c2coc(n2)/C=C/CC(OC)C1C)C(C)CCC(=O)C(C)C(OC(C)=O)C(C)/C=C/N(C)C=O` (centres unmarked) [Ulpualide A], the cytotoxicity result in data set [1] is “have cytotoxicity”. For the same compound, the antibacterial activity result in data set [2] was “antibacterial activity”.
In the case of `COC(CC1OC(=O)CC(O)C/C=C/C(=O)C(C)C(OC)c2coc(n2)-c2coc(n2)-c2coc(n2)/C=C/CC(OC)C1C)C(C)CCC(=O)C(C)C(OC(C)=O)C(C)/C=C/N(C)C=O` (centres unmarked) [Mycalolide A], in data set [3], the antifungal activity entry was “antifungal activity”. In data set [1], the cytotoxicity result is “have cytotoxicity”.
Turning to `COC(CC1OC(=O)CC(O)CCCC(=O)C(C)C(OC)c2coc(n2)-c2coc(n2)-c2coc(n2)/C=C/CCC1C)C(C)CCC(=O)C(C)C(C/C=C/N(C)C=O)OC` (centres unmarked) [Dihydrohalichondramide], the antifungal activity result in data set [3] is given as “antifungal activity”. The cytotoxicity entry in data set [1] was “have cytotoxicity”.
For the compound `COC(CC1OC(=O)CC(OC(C)=O)CCCC(O)C(C)C(OC)c2coc(n2)-c2coc(n2)-c2coc(n2)/C=C/CC(OC)C1C)C(C)CCC(=O)C(C)C(OC)C(C)/C=C/N(C)C=O` (centres unmarked) [Kabiramide E], in data set [1], the cytotoxicity entry is reported as “have cytotoxicity”.
For `COC(CC1OC(=O)CC(O)CCCC(=O)C(C)C(OC)c2coc(n2)-c2coc(n2)-c2coc(n2)/C=C/CCC1C)C(C)CCC(=O)C(C)C(OC)C(C)/C=C/N(C)C=O` (centres unmarked) [33-Methyldihydrohalichondramide], the cytotoxicity entry in data set [1] was “have cytotoxicity”.
For the compound `COC(=O)/C=C/CCC(C)C(CC(OC)C(C)CCC(=O)C(C)C(C/C=C/N(C)C=O)OC)OC(=O)CC(O)CC=CC(=O)C(C)C(OC)c1coc(-c2coc(C(N)=O)n2)n1` (centres unmarked) [Isohalichondramide (ester form)], the antifungal activity entry in data set [3] was “antifungal activity”. For the same compound, in data set [1], the cytotoxicity entry is “have cytotoxicity”.
